The values below come from patent publication US11466016B2, “Pharmaceutical compounds” (priority 2018, dated 2022).

In the assay the target is SHP2 (Homo sapiens (Human), UniProt Q06124). In words: SHP2 Biochemical Assay (DiFMUP conversion, pIRS1 activating peptide).
[1] abbreviates: DiFMUP substrate, 0.25 μM pIRS1 peptide, 30 min pre-incubation, average where more than one data point, read-out: SHP2 (IC50).

By IC50 is commonly meant the point on the concentration scale where inhibition reaches its midpoint.

Structures are written as SMILES. Where a name gives a salt, the structure may show the parent alone. Read-outs that look alike come from different tables or passages of the source.

SHP2, sequence (Q06124 whole entry): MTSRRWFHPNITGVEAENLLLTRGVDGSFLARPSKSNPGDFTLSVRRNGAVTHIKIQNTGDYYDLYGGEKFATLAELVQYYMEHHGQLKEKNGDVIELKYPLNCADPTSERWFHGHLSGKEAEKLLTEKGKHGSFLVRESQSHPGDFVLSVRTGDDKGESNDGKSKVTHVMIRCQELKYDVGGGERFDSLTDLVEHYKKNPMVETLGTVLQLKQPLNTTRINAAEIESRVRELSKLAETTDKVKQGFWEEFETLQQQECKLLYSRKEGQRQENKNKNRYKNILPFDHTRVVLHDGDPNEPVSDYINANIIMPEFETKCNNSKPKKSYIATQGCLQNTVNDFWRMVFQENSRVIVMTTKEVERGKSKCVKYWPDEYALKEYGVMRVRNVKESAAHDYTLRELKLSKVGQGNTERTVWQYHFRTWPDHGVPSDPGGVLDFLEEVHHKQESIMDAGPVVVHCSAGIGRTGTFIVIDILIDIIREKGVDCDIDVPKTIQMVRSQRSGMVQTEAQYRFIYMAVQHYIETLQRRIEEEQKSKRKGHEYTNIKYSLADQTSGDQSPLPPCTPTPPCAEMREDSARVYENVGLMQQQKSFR

Regarding `Cc1nc2c(-c3ccc4nn(C)cc4c3Cl)n[nH]c2nc1N1[C@@H]2CC[C@H]1C[C@H](N)C2` [Example 40, exo-8-[3-(4-chloro-2-methyl-2H-indazol-5-yl)-5-methyl-1H-pyrazolo[3,4-b]pyrazin-6-yl]-8-azabicyclo[3.2.1]octan-3-amine, dihydrochloride salt], under setting [1], the IC50 came to 10 nM. Take `CCn1cc2c(Cl)c(-c3n[nH]c4nc(N5[C@H]6CC[C@@H]5[C@@H](F)[C@@H](N)C6)c(CO)nc34)ccc2n1` [Example 82, {6-[(1R,2S,3S,5S)-3-amino-2-fluoro-8-azabicyclo[3.2.1]octan-8-yl]-3-(4-chloro-2-ethyl-2H-indazol-5-yl)-1H-pyrazolo[3,4-b]pyrazin-5-yl}methanol]: under setting [1], the IC50 was 12 nM. Regarding `CC(C)n1nc2ccc(-c3n[nH]c4nc(N5[C@H]6CC[C@@H]5[C@@H](F)[C@@H](N)C6)c(CO)nc34)c(Cl)c2c1C#N` [Example 149, 5-{6-[(1R,2S,3S,5S)-3-amino-2-fluoro-8-azabicyclo[3.2.1]octan-8-yl]-5-(hydroxymethyl)-1H-pyrazolo[3,4-b]pyrazin-3-yl}-4-chloro-2-(propan-2-yl)-2H-indazole-3-carbonitrile], the IC50 under setting [1] was 14 nM.

Consider `COc1cnc2ccc(-c3n[nH]c4nc(N5[C@H]6CC[C@@H]5[C@@H](F)[C@@H](N)C6)c(CO)nc34)c(Cl)c2n1` [Example 84, {6-[(1R,2S,3S,5S)-3-amino-2-fluoro-8-azabicyclo[3.2.1]octan-8-yl]-3-(5-chloro-3-methoxyquinoxalin-6-yl)-1H-pyrazolo[3,4-b]pyrazin-5-yl}methanol], for which the IC50 under setting [1] amounted to 7.4 nM. The same measure, in the same setting: then `Cn1cc2c(Cl)c(-c3c[nH]c4nc(N5[C@@H]6CC[C@H]5C[C@H](CN)C6)cnc34)ccc2n1` [Example 1, 1-[exo-8-[7-(4-chloro-2-methyl-2-indazol-5-yl)-5H-pyrrolo[2,3-b]pyrazin-3-yl]-8-azabicyclo[3.2.1]octan-3-yl]methanamine], with 13 nM. Take `CN1Cc2c(ccc(-c3c[nH]c4nc(N5CC[C@H](N)[C@H](F)C5)cnc34)c2Cl)C1=O` [Example 72, 5-{3-[(3R,4S)-4-amino-3-fluoropiperidin-1-yl]-5H-pyrrolo[2,3-b]pyrazin-7-yl}-4-chloro-2-methyl-2,3-dihydro-1H-isoindol-1-one, hydrochloride salt]: the “SHP2 (percent at stated concentration)” value is listed as 50%@0.30 uM.

`Cn1cc2c(Cl)c(-c3n[nH]c4nc(N5[C@@H]6CC[C@H]5[C@@H](F)[C@@H](N)C6)c(CO)nc34)ccc2n1` [Example 81, {6-[(1S,2S,3S,5R)-3-amino-2-fluoro-8-azabicyclo[3.2.1]octan-8-yl]-3-(4-chloro-2-methyl-2H-indazol-5-yl)-1H-pyrazolo[3,4-b]pyrazin-5-yl}methanol] showed an IC50 of 15 nM. For the compound `COc1cnc2ccc(-c3n[nH]c4nc(N5[C@@H]6CC[C@H]5C[C@@H](N)C6)c(CO)nc34)c(Cl)c2n1` [Example 113, {6-[endo-3-amino-8-azabicyclo[3.2.1]octan-8-yl]-3-(5-chloro-3-methoxyquinoxalin-6-yl)-1H-pyrazolo[3,4-b]pyrazin-5-yl}methanol], the concentration for half-maximal inhibition (IC50) under setting [1] came to 7.4 nM. `CCOc1cnc2ccc(-c3n[nH]c4nc(N5[C@H]6CC[C@@H]5[C@@H](F)[C@@H](N)C6)c(CO)nc34)c(Cl)c2n1` [Example 138, {6-[(1R,2S,3S,5S)-3-amino-2-fluoro-8-azabicyclo[3.2.1]octan-8-yl]-3-(5-chloro-3-ethoxyquinoxalin-6-yl)-1H-pyrazolo[3,4-b]pyrazin-5-yl}methanol]: the IC50 under setting [1] was determined as 13 nM. In the case of `N[C@H]1C[C@H]2CC[C@@H](C1)N2c1cnc2c(-c3ccc4c(c3Cl)C(F)(F)C(=O)N4)c[nH]c2n1` [Example 66, 5-{3-[endo-3-amino-8-azabicyclo[3.2.1]octan-8-yl]-5H-pyrrolo[2,3-b]pyrazin-7-yl}-4-chloro-3,3-difluoro-2,3-dihydro-1H-indol-2-one, dihydrochloride salt], the half-maximal inhibitory concentration (IC50) under setting [1] came to 4.4 nM.
